Source: patent publication US10934274B2, “Quinoline derivatives as TAM RTK inhibitors” (Qurient Co., Ltd., priority 2015, dated 2021)

Experiments:
[1] = tested on: Axl phosphorylation in transiently transfected HEK293T cells; assay: Cellular Axl phosphorylation assay; assay type: cell-based; details: Homo sapiens, HEK-293T; HEK293T cells transfected with Axl, 1 hour compound treatment, Phospho-Axl vs Total-Axl
In short: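 Axl-RTK was overexpressed by transfection in HEK293T cells to drive trans-autophosphorylation; cells were exposed to test compound for 1 hour. Phospho-Axl and total Axl were captured in lysates and detected by MSD electrochemiluminescence. IC50 was set between the DMSO group and the empty-vector-transfected minimum.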

TYRO3 = biological target: T1, TYRO3 (Homo sapiens, UniProt Q06418); assay: LanthaScreen Eu kinase binding assay, TYRO3; details: Tracer 236
T1 construct: purchased Life Technologies
T1 sequence (Q06418 41-890): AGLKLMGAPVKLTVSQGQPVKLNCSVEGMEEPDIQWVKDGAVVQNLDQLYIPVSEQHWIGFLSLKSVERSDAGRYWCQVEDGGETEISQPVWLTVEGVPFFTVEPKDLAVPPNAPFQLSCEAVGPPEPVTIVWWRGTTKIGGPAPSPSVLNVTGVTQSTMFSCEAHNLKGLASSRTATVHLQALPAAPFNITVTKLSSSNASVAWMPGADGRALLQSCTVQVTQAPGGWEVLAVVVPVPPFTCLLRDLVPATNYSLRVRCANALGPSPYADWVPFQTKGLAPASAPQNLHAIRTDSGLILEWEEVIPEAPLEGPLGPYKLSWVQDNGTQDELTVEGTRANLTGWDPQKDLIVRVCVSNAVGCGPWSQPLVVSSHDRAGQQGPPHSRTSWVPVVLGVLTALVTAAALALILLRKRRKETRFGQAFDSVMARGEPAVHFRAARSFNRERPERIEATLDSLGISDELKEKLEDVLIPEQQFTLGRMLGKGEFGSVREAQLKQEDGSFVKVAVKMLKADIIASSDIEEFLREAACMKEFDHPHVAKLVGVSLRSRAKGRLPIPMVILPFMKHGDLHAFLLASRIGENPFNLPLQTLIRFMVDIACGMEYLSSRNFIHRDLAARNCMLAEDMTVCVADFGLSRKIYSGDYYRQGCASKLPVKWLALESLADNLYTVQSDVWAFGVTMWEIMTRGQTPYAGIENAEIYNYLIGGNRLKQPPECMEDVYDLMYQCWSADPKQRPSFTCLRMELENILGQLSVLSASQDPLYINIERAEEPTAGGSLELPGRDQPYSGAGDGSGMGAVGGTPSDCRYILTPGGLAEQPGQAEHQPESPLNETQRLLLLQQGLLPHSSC

| SMILES | IC50 [1] [nM] | Kd (TYRO3) [nM] |
| --- | --- | --- |
| CCOc1cn(-c2cnccc2CO)nc1C(=O)Nc1ccc(Oc2ccnc3cc(OC)c(OC(F)(F)F)cc23)cn1 [Compound 233] | < 100 | < 100 |
| CCC(C)Oc1cc2nccc(Oc3ccc(NC(=O)c4nn(-c5cccnc5)cc4OCC(F)(F)F)nc3)c2cc1OC (stereo not shown) [Compound 234] | < 100 | < 100 |
| COc1cc2nccc(Oc3ccc(NC(=O)c4nn(-c5cnc(Cl)cn5)cc4OCC(F)(F)F)nc3)c2cc1OC [Compound 236] | < 100 | < 100 |
| COc1cc2nccc(Oc3ccc(NC(=O)c4nn(-c5cnc(N)nc5)cc4OCC(F)(F)F)nc3)c2cc1OC [Compound 237] | < 100 | < 100 |
| COc1cc2nccc(Oc3ccc(NC(=O)c4nn(-c5cccnc5)cc4OCC4CC4)nc3)c2cc1OC(F)(F)F [Compound 239] | < 100 | < 100 |
| COc1cc2nccc(Oc3ccc(NC(=O)c4nn(-c5cnc(N)nc5)cc4OCC4CC4)nc3)c2cc1OC [Compound 240] | < 100 | < 100 |
| CCOc1cn(-c2cnc(N)nc2)nc1C(=O)Nc1ccc(Oc2ccnc3cc(OC)c(OC(F)(F)F)cc23)cn1 [Compound 241] | < 100 | ≥ 1000 |
| CCOc1cn(-c2cnc(N)nc2)nc1C(=O)Nc1ccc(Oc2ccnc3cc(OC)c(OC(F)(F)F)cc23)cc1F [Compound 242] | 100 to 1000 | ≥ 1000 |
| COc1cc2c(Oc3ccc(NC(=O)c4nn(-c5cnc(N)nc5)cc4OCC(F)(F)F)c(F)c3)ccnc2cc1OC(C)C [Compound 243] | < 100 | < 100 |
| COc1cc2nccc(Oc3ccc(NC(=O)c4nn(-c5ccc(OC(F)(F)F)cc5Cl)cc4OCC4CC4)nc3)c2cc1OC [Compound 244] | < 100 | < 100 |
| COc1cc2c(Oc3ccc(NC(=O)c4nn(-c5cnc(N)cn5)cc4OCC(F)(F)F)c(F)c3)ccnc2cc1OC(C)C [Compound 246] | < 100 | < 100 |
| COc1cc2nccc(Oc3ccc(NC(=O)c4nn(-c5cnccc5C(F)(F)F)cc4OCC4CC4)nc3)c2cc1OC [Compound 247] | < 100 | < 100 |
| COc1cc2nccc(Oc3ccc(NC(=O)c4nn(-c5cnc(N)cn5)cc4OCC(F)(F)F)nc3)c2cc1OC [Compound 248] | < 100 | < 100 |
| COc1cc2nccc(Oc3ccc(NC(=O)c4nn(-c5cnc(N)cn5)cc4OCC4CC4)nc3)c2cc1OC [Compound 249] | < 100 | < 100 |
| COc1cc2nccc(Oc3ccc(NC(=O)c4nn(-c5cnc(N)cn5)cc4OCC(F)(F)F)c(F)c3)c2cc1OC [Compound 252] | < 100 | < 100 |
| COc1cc2c(Oc3ccc(NC(=O)c4nn(-c5cnc(N)cn5)cc4OCC(F)(F)F)nc3)ccnc2cc1OC(C)C [Compound 253] | < 100 | < 100 |
| COc1cc2nccc(Oc3ccc(NC(=O)c4nn(-c5cnc(N)nc5)cc4OC(F)F)nc3)c2cc1OC [Compound 254] | < 100 | ≥ 1000 |
| COc1cc2nccc(Oc3ccc(NC(=O)c4nn(-c5cccnc5)cc4OCC4CC4)nc3)c2cc1OC [Compound 255] | < 100 | < 100 |

| SMILES | IC50 [1] [nM] | Kd (TYRO3) [nM] |
| --- | --- | --- |
| COc1cc2c(Oc3ccc(NC(=O)c4nn(-c5cnc(N)nc5)cc4OCC(F)(F)F)nc3)ccnc2cc1OC(C)C [Compound 257] | < 100 | < 100 |
| COc1cc2nccc(Oc3ccc(NC(=O)c4nn(-c5ccc(F)cc5C)cc4OCC4CC4)nc3)c2cc1OC [Compound 258] | < 100 | < 100 |
| COc1cc2nccc(Oc3ccc(NC(=O)c4nn(-c5cnc(N)nc5)cc4OCC(F)(F)F)c(F)c3)c2cc1OC [Compound 259] | < 100 | < 100 |
| COc1cc2nccc(Oc3ccc(NC(=O)c4nn(-c5cnc(N)nc5)cc4OC(C)C)nc3)c2cc1OC [Compound 260] | < 100 | < 100 |
| COc1cc2nccc(Oc3ccc(NC(=O)c4nn(-c5cncnc5C5CC5)cc4OCC(F)(F)F)nc3)c2cc1OC [Compound 261] | < 100 | < 100 |
| COc1cc2nccc(Oc3ccc(NC(=O)c4nn(-c5cnc(N)nc5)cc4OCC4CCC4)nc3)c2cc1OC [Compound 262] | < 100 | < 100 |
| COc1cc2nccc(Oc3ccc(NC(=O)c4nn(-c5ccc(F)cc5Cl)cc4OCC4CC4)nc3)c2cc1OC [Compound 263] | < 100 | < 100 |
| COc1cc2nccc(Oc3ccc(NC(=O)c4nn(-c5ccc(F)cc5OC)cc4OCC4CC4)nc3)c2cc1OC [Compound 264] | < 100 | < 100 |
| COc1cc2nccc(Oc3ccc(NC(=O)c4nn(-c5cnc(N)nc5)cc4OCC4CNC4)nc3)c2cc1OC [Compound 265] | ≥ 1000 | ≥ 1000 |
| COc1cc2nccc(Oc3ccc(NC(=O)c4nn(-c5ccc(F)cc5N5CCOCC5)cc4OCC4CC4)nc3)c2cc1OC [Compound 266] | < 100 | < 100 |
| COc1cc2nccc(Oc3ccc(NC(=O)c4nn(-c5ccc(F)cc5F)cc4OCC4CC4)nc3)c2cc1OC [Compound 267] | < 100 | < 100 |
| COc1cc2nccc(Oc3ccc(NC(=O)c4nn(-c5ccc(F)cc5F)cc4OCC(F)(F)F)nc3)c2cc1OC [Compound 268] | < 100 | < 100 |
| COc1cc2nccc(Oc3ccc(NC(=O)c4nn(-c5cnc(N)nc5)cc4OCC4COC4)nc3)c2cc1OC [Compound 269] | < 100 | < 100 |
| COc1cc2nccc(Oc3ccc(NC(=O)c4nn(-c5ccc(F)cc5C5CCCC5)cc4OCC4CC4)nc3)c2cc1OC [Compound 270] | < 100 | 100 to 1000 |
| COc1cc2nccc(Oc3ccc(NC(=O)c4nn(-c5ccc(F)cc5Oc5ccccc5)cc4OCC4CC4)nc3)c2cc1OC [Compound 272] | < 100 | 100 to 1000 |
| COc1cc2nccc(Oc3ccc(NC(=O)c4nn(-c5ccc(F)cc5C(C)=O)cc4OCC4CC4)nc3)c2cc1OC [Compound 273] | < 100 | 100 to 1000 |
| COc1cc2nccc(Oc3ccc(NC(=O)c4nn(-c5ccc(F)c(C(C)=O)c5)cc4OCC4CC4)nc3)c2cc1OC [Compound 274] | < 100 | < 100 |
